# Results as given in PMC5955437, “Antifungal activity of osthol in vitro and enhancement in vivo through Eudragit S100 nanocarriers” (Virulence, 2017).
# Read-outs that look alike come from different tables or passages of the source.
# Experiments:
# C. albicans ATCC 90028 = test: Checkerboard microdilution assay, quality control strain; assay type: cell-based, Candida albicans; conditions: ATCC90028; for MIC80 in combination: FLC combined with Ost
# Method: (§1) Eleven clinical isolates of FLC-resistant C. albicans were used in this study, and C. albicans ATCC 90028 was used as a quality control. Drugs prepared in dimethyl sulfoxide (DMSO) included osthol (Shanghai Jianglai Biotechnology Co. Ltd, China) and fluconazole (Pfizer-Roerig Pharmaceuticals, New York, NY).
# (§2) Assays were performed on all 11 isolates according to methods of the CLSI (formerly NCCLS) (M27-A2). The concentration of fungus suspension in RPMI 1640 medium was 10^3 CFU/ml, and the final concentration ranged from 0.125 to 64 μg/ml for FLC and 1 to 32 μg/ml for OST. Plates were incubated at 35 °C for 24 h. Optical density was measured at 630 nm and background optical densities were subtracted from each well. MIC80 were defined as the minimum inhibition concentration of the drugs that inhibited growth by 80% when compared with drug-free wells. The fractional inhibitory concentration index (FICI) were defined as the sum of the MIC80 of each drug when used in combination divided by the MIC80 of the drug used alone. Synergism and antagonism were defined by FICIs of≤ 0.5 and >4, respectively. An FICI result of > 0.5 but ≤ 4 was considered indifferent.[43]
# C. albicans 103 [1] = test: Agar disk diffusion test; assay type: cell-based, Candida albicans; conditions: for anti-fungal activity, disk on plain agar: Ost alone
# Method: C. albicans 103 (FLC-resistant isolate with a MIC80 of 64 μg/ml for […]) was tested by agar diffusion assay.[44] A 100 μl of C. albicans 103 in 10^6 CFU/ml suspension was spread uniformly onto the yeast extract-peptone-dextrose agar plate with or without 64 μg/ml FLC. Then, 6-mm paper disks impregnated with Ost and FLC alone or in combination were placed onto the agar surface. There was 5 μl of DMSO in control disks. Inhibition zones were measured after incubation at 35°C for 48 h. Assays were performed in duplicate.
# [2] = test system: clinical isolates of C. albicans resistant to FLC; test: Checkerboard microdilution assay (CLSI M27-A2), FLC-resistant clinical isolates; assay type: cell-based, Candida albicans; conditions: for antifungal activity when tested alone: FLC-resistant isolates, drug alone; for MIC80 alone / MIC80: 35 °C, 24 h; for MIC80 in combination: FLC combined with Ost; for MIC80: Candida albicans, read-out: MIC80 alone
# Method: as §1, §2
# C. albicans 103 [3] = test: Survival of immunosuppressed mice systemically infected with C. albicans; assay type: in vivo, Candida albicans; conditions: immunosuppressed ICR mice, 1 × 10^6 CFU i.v.; oral FLC 0.5 mg/kg/day, Ost 150 mg/kg/day, 4 d treatment
# Method: Sixty female ICR mice (weighing 20–25 g) were prepared in the antifungal study in vivo. We followed the methods of Junius M et al. and Kenneth et al. with a few modifications.[45,46] Briefly, acute infections in immunosuppressed mice, resulting from a 80 mg/kg/day intravenous dose of cyclophosphamide 3 d before infection, then injected with 1 × 10^6 CFU C. albicans in 0.2 ml of saline intravenously. This inoculum was uniformly lethal for placebo-treated animals within a week. After inoculation, the mice were randomly separated into 6 groups (10 animals per group), including saline control group and medication administration groups (FLC, Ost-S100-NP, Ost-suspensions, Ost-suspensions plus FLC, and Ost-S100-NP plus FLC). The dosages of FLC and Ost are 0.5 mg/kg/day and 150 mg/kg/day by oral administration. Therapy was begun 2 hours post infection and last for 4 d. The survival time was calculated from the day 0 since inoculation to the day of death. Survival data were presented as Kaplan-Merier plots and analyzed with a Log-rank Test (SPSS 18; SPSS, Chicago, Illinois). A value of P < 0.05 was considered to be significant.
compound,measurement,setting,value
7-methoxy-8-[3-methylpent-2-enyl] coumarin [Ost],MIC80 alone,"C. albicans ATCC 90028; 35 °C, 24 h",8 µg/mL
same,MIC80 in combination,C. albicans ATCC 90028,1 µg/mL
same,mean diameter of the inhibitory zone,C. albicans 103 [1]; 8 μg Ost disk on YEPD plate containing 64 μg/ml FLC,8 mm
same,mean diameter of the inhibitory zone,C. albicans 103 [1]; 16 μg Ost disk on YEPD plate containing 64 μg/ml FLC,12 mm
same,mean diameter of the inhibitory zone,C. albicans 103 [1]; 32 μg Ost disk on YEPD plate containing 64 μg/ml FLC,16 mm
same,mean diameter of the inhibitory zone,C. albicans 103 [1]; 64 μg Ost disk on YEPD plate containing 64 μg/ml FLC,21 mm
same,"anti-fungal activity, disk on plain agar","C. albicans 103 [1]; 64 μg, 35°C, 48 h",weak anti-fungal activity
same,"anti-fungal activity, disk on plain agar","C. albicans 103 [1]; smaller dosage (below 64 μg), 35°C, 48 h",no anti-fungal activity
same,antifungal activity when tested alone,[2],weak antifungal activity
same,MIC80 alone,[2]; isolate 32,64 µg/mL
same,MIC80 in combination,[2]; isolate 32,4 µg/mL
same,MIC80 alone,[2]; isolate 100,32 µg/mL
same,MIC80 in combination,[2]; isolate 100,4 µg/mL
same,MIC80 alone,[2]; isolate 103,64 µg/mL
same,MIC80 in combination,[2]; isolate 103,4 µg/mL
same,MIC80 alone,[2]; isolate 557,64 µg/mL
same,MIC80 in combination,[2]; isolate 557,2 µg/mL
same,MIC80 alone,[2]; isolate 842,64 µg/mL
same,MIC80 in combination,[2]; isolate 842,2 µg/mL
same,MIC80 alone,[2]; isolate 901,16 µg/mL
same,MIC80 in combination,[2]; isolate 901,4 µg/mL
same,MIC80 alone,[2]; isolate 904,>64 µg/mL
same,MIC80 in combination,[2]; isolate 904,4 µg/mL
same,MIC80 alone,[2]; isolate 953,32 µg/mL
same,MIC80 in combination,[2]; isolate 953,4 µg/mL
same,MIC80 alone,[2]; isolate J5,64 µg/mL
same,MIC80 in combination,[2]; isolate J5,8 µg/mL
same,MIC80 alone,[2]; isolate J28,64 µg/mL
same,MIC80 in combination,[2]; isolate J28,8 µg/mL
same,MIC80 alone,[2]; isolate J35,32 µg/mL
same,MIC80 in combination,[2]; isolate J35,8 µg/mL
"OC(Cn1cncn1)(Cn1cncn1)c1ccc(F)cc1F [FLC, fluconazole, reference compound]",MIC80 in combination,C. albicans ATCC 90028,0.0625 µg/mL
same,MIC80,"C. albicans ATCC 90028; Candida albicans, 35 °C, 24 h, read-out: MIC80 alone",0.25 µg/mL
same,average survival day,C. albicans 103 [3],8.7 days
same,"inhibition, disk on plain agar","C. albicans 103 [1]; FLC alone, 10 μg, 35°C, 48 h",only weak inhibition
same,MIC80,[2]; isolate 32,64 µg/mL
same,MIC80,[2]; isolate 100,> 64 µg/mL
same,MIC80,[2]; isolate 103,> 64 µg/mL
same,MIC80,[2]; isolate 557,> 64 µg/mL
same,MIC80,[2]; isolate 842,> 64 µg/mL
same,MIC80,[2]; isolate 901,> 64 µg/mL
same,MIC80,[2]; isolate 904,> 64 µg/mL
same,MIC80,[2]; isolate 953,64 µg/mL
same,MIC80,[2]; isolate J5,> 64 µg/mL
same,MIC80,[2]; isolate J28,> 64 µg/mL
same,MIC80,[2]; isolate J35,64 µg/mL
same,antifungal activity when tested alone,[2],weak antifungal activity
same,MIC80 in combination,[2]; isolate 32,2 µg/mL
same,MIC80 in combination,[2]; isolate 100,4 µg/mL
same,MIC80 in combination,[2]; isolate 103,4 µg/mL
same,MIC80 in combination,[2]; isolate 557,2 µg/mL
same,MIC80 in combination,[2]; isolate 842,2 µg/mL
same,MIC80 in combination,[2]; isolate 901,2 µg/mL
same,MIC80 in combination,[2]; isolate 904,2 µg/mL
same,MIC80 in combination,[2]; isolate 953,2 µg/mL
same,MIC80 in combination,[2]; isolate J5,2 µg/mL
same,MIC80 in combination,[2]; isolate J28,8 µg/mL
same,MIC80 in combination,[2]; isolate J35,1 µg/mL
